Results on 3 molecules are retold here after patent US5877154A, “Pharmaceutical compositions for the treatment or prevention of disorders in the eye” (Ramot University Authority for Applied Research and …, priority 1992, dated 1999).

Experiment [1] deals with human skin fibroblast (HSF) cell culture. Kind of experiment: 3H-Thymidine uptake by human skin fibroblast cell culture. Conditions: bFGF 9 ng/ml; EGF 10 ng/ml; melanotropin 10^-6 M and 10^-7 M; serum free medium, FIG. 2. The class given is cell-based. As to the method:
HSF cells were grown in DMEM (Dulbeccos Modified Eagles Media) supplemented with 10% heat inactivated fetal calf serum, 2 mM glutamine and antibiotics (100 U/mi penicillin G, 0.25 mg/ml amphotericin B and 0.1 mg/ml streptomycin) (Biological Industries, Beth Haemek, Israel) in 56.7 cm^2 tissue culture flasks (Nunc, Roskilde, Denmark) at 37° C. in a 10% CO2 humidified atmosphere incubator. When the cells reached confluency, they were tripsinized by incubation with 0.083% tripsine (Biological Industries, Beth HaEmek, Israel) for a few minutes at 37° C. and seeded (please complete). The growth medium of the cells with or without drugs was changed twice a week.
The wells were then divided into five groups and a different medium was added to the wells of each group as described in Example 1. The medium added to each of the five groups was: (1) serum free medium containing melanotropin 10^-6 M; (2) serum free medium containing melanotropin 10^-7 M; (3) serum free medium containing EGF 10 ng/ml; (4) serum free medium containing bFGF 9 nn/ml; and (5) serum free medium only.
The degree of ^3 H-Thymidine uptake by human skin fibroblast was determined as described in Example 1.

For the next experiment, the system named is bovine RPE cells. Kind of experiment: wound closure technique: proliferation and migration of RPE cells over denuded area. The class given is cell-based. The conditions noted are these: bFGF 10^-10 mg/ml. As to the method: The ability of RPE cells to proliferate and migrate over denuded areas was measured using a slight modification of the previously known technique termed "wound closure technique" (Jumblatt and Neufeld, 1986).
In this example bovine RPE cells were grown as described in Example 1 and plated in microwell plates containing 16 ml wells. When the cultures reached confluency, sloughing of the cells from a centrally located area in each well was carried out using a very sharp blade. In order to remove non adherent cells, each well was rinsed with a 1 ml Earle's balanced salt solution (EBSS: Gibco). The cultures were photographed at the time of the sloughing and at 12, 24 and 48 hours after the sloughing procedure. In this way the size of the denuded area in the culture at the time of the sloughing was documented and could be compared later to the same cultures at different time periods after the denudation.
The ability of the bovine RPE cells to proliferate and migrate over the denuded area in the well was determined by analyzing the covered and uncovered area in the photographs of the cultures taken at different time periods as described in Jumblatt & Neufeld (ibid). The rate of the "wound" closure was calculated as mm^2 per hour or as the percentage of the covered area in the culture wells at a specific time period.
The bovine RPE cell cultures were divided into six groups. […]

For experiment [2], the system named is bovine vascular endothilial cells (ABAE). The experiment can be described thus: 3H-Thymidine uptake by bovine vascular endothelial cells. The class given is cell-based. The conditions noted are these: bFGF 9 ng/ml; EGF 10 ng/ml; melanotropin 10^-6 M and 10^-7 M; single set of experiments. As to the method:
ABAE cells were grown in DMEM (Dulbeccos Modified Eagles Media) supplemented with 5% heat inactivated fetal calf serum, 5% heat inactivated newborn calf serum, 2 mM glutamine and antibiotics (100 U/ml penicillin G, 0.25 mg/ml amphotericin B and 0.1 mg/ml streptomycin) (all from Biological Industries, Beth HaEmek, Israel) in 56.7 cm^2 tissue culture dishes (Nunc, Roskilde, Denmark) at 37° C. in a humidified atmosphere incubator with 10% CO2.
The cultures were supplemented every other day with 10^-9 ng/ml of bFGF until they reached confluency.
The cells were then trypsinized by adding 0.041% trypsin (Biological Industries, Beth HaEmek, Israel) for a few minutes at 37° C. The cells were then diluted by a factor of six and plated in microwell plates. Growth medium was changed twice a week.
The cells were then divided into five groups as described in Examples 1 and 2 and a different medium was added to the wells of each group as follows: (1) serum free medium containing melanotropin 10^-6 M; (2) serum free medium containing melanotropin 10^-7 M; (3) serum free medium containing EGF 10 ng/ml; (4) serum free medium containing bFGF 9 ng/ml; and (5) serum free medium alone.
The degree of ^3 H-Thymidine uptake by the cells was again determined as described in Examples 1 and 2.

The subject of experiment [3] is leukotriene B4 (LTB4) production in the corneas. The experiment can be described thus: LTB4 production in corneas of rats exposed to UV irradiation. The class given is in vivo, albino rats. Conditions: dexamethasone 4 mg/kg per day, melanotropin 10 μg/kg per day, irradiated untreated 2.47±0.8. As to the method:
The antinflammatory activity of melanotropin in the eye was measured by the ability of the melanotropin to inhibit the production of the leukotriene (LTB4) which is produced during the inflammatory response elicited by noxious stimulae to the cornea.
The ability of melanotropin to inhibit an inflammatory response was determined in corneas of albino rats subjected to UV irradiation. The parameter used to measure the inflammatory response was the amount of production of leukotriene B4--known for its modulatory action in inflammation.
One eye of albino rats of either sex weighing 200-250 gm was exposed to UV irradiation (200-400 nm) for 15 min. daily for 4 consecutive days. The other contralateral eye of each rat was not exposed to the irradiation and served as a control. […]
In the treated group of animals, the specific treatment began each day within one hour after the UV exposure. […] At the end of the incubation, a sample was obtained from the medium and the contents of the leukotrien B4 (LTB4) was determined by a radioimmunoassay (RIA) technique using a New England Nuclear Kit with a specific antibody against LTB4.

Experiment [4] relates to prostaglandin type E2 (PGE2) production. Kind of experiment: PGE2 production in eyes of rats exposed to UV irradiation. The class given is in vivo, albino rats. The conditions noted are these: dexamethasone 4 mg/kg per day, melanotropin 10 μg per day. As to the method: One eye of albino rats of either sex weighing 200-250 gm was exposed to UV irradiation (200-400 nm) for 15 min. daily for 4 consecutive days. The other contralateral eye of each rat was not exposed to the irradiation and served as a control.
The animals were divided into three groups (8 rats in each group) as follows: (1) untreated; (2) rabbits exposed to UV irradiation and a daily intermuscular (i.m.) injection of 4 mg/kg dexamethasone; and (3) rabbits exposed to UV irradiation and treated with a daily injection (i.m.) of 10 μg/kg of melanotropin.
In the treated group of animals, the specific treatment began each day within one hour after the UV exposure. The animals were sacrificed two days following the last UV irradiation and the eyes were frozen at -70° C. The cornea was disected and incubated in a shaking bath at 37° C. for 40 mins. in a Heppes buffer (pH=7.4). At the end of the incubation, a sample was obtained from the medium and the contents of the leukotrien B4 (LTB4) was determined by a radioimmunoassay (RIA) technique using a New England Nuclear Kit with a specific antibody against LTB4.
The production of prostaglandin type E2 (PGE2) was also measured in the eyes of three groups of rats. The amount of PGE2 in the eyes exposed to UV irradiation was higher than in the nonirradiated control eyes (4.1±1.9 pg/mg weight as compared to 1.8±0.3 pg/mg weight, p=0.001).

Take “bFGF: basic fibroblast growth factor, comparison growth factor”: the “3H-Thymidine uptake of human skin fibroblasts as compared to cells treated with medium alone” value in experiment [1] is on record as “five-fold increase”. For the same molecule, the “cell covered area in the wells” value with bovine RPE cells (12 hours after the wounding) amounted to 11.4±1.1 mm^2. The “cell covered area in the culture” value in the experiment with bovine RPE cells (48 hours after addition, p<0.05 vs medium alone) was 21.1±0.7 mm^2. The “3H-Thymidine uptake by the bovine vascular endothilium cells” value in experiment [2] is given as “significant induction”.
With “EGF: Epidermal growth factor, comparison growth factor”, the “3H-Thymidine uptake of human skin fibroblasts as compared to cells treated with medium alone” value in experiment [1] is listed as “did not cause any increase”. Further, the “3H-Thymidine uptake by the bovine vascular endothilium cells” value in experiment [2] is given as “significant induction”.
Consider `C[C@@H]1C[C@H]2[C@@H]3CCC4=CC(=O)C=C[C@]4(C)[C@@]3(F)[C@@H](O)C[C@]2(C)[C@@]1(O)C(=O)CO` [dextamethasone, dexamethasone], for which the “LTB4 produced by the corneas of the UV irradiated eyes” value in experiment [3] came to 9.38±2.4 pg/mg weight. Moreover, the “PGE2 produced by UV irradiated corneas compared with irradiated but untreated corneas” value in experiment [4] is listed as “lower than the amount of the PGE2 in the irradiated but untreated rats' corneas”.
